According to USRE49340E1, “Use of known compounds as D-amino acid oxidase inhibitors” (National Taiwan University, priority 2014, dated 2022):
“And” between values parts separate entries of the source, which are not always exact repeats. Identical values can stand only once. “Also recorded” adds a separate entry of the source. Counter-ions that a name gives are not always drawn. Like-named read-outs stand apart in the source and are kept apart here. Values belong to the compound of their own block, whether it stands above or below them.

Assays:
[1] = test system: C57/B16 mice with MK-801 injection; test: Prepulse inhibition in MK-801 mouse model of schizophrenia; assay type: in vivo; conditions: mice given MK-801 0.2 mg/kg i.p., 40 mg/kg RS-D7
Description: (§1) Taking advantage of wild-type (WT, healthy) mouse and pharmacologic animal models of schizophrenia, such as MK-801 and methamphetamine mouse model of schizophrenia, as the well-established animal models of schizophrenia, we investigate the therapeutic potential of RS-D7, a DAO inhibitor, on the alleviation of schizophrenia-related negative and cognitive deficits. A serial of behavioral tasks has been selected and conducted for mimicking the cognitive (e.g., prepulse inhibition) and negative symptoms (e.g., sucrose preference test and hot plate test) of schizophrenia in healthy control mice or pharmacological mouse model of schizophrenia (Lai, W. S et al., Current Pharmaceutical Design, 2014, 20(32), 5139-50). The pharmacological animal model of schizophrenia is due in part to similarities in clinical presentation and response to treatment. These behavioral tasks have been evaluated with varying degrees of test validities for assessing schizophrenia-relevant behavioral deficits in mice. Different batches of male adult C57/B16 mice were used and the details of different behavioral tasks were described elsewhere.
(§2) MK-801 is a non-competitive NMDA receptor antagonist. An injection and chronic injections of MK-801 provide a potential animal model to mimic both the negative and cognitive symptoms of schizophrenia. […]

[2] = test system: ICR mice with methamphetamine injection; test: Prepulse inhibition in methamphetamine mouse model of schizophrenia; assay type: in vivo; conditions: ICR mice with methamphetamine 3 mg/kg i.p., 20 mg/kg i.p., especially 74 dB prepulse, vs DMSO and CBIO controls; listed as RS-D7
Description: Methamphetamine is a potent psychostimulant that increases the amount of extracellular dopamine in the brain. Methamphetamine (or amphetamine)-induced psychosis model has been well-established and useful for schizophrenia in laboratory animals.

porcine kidney DAAO = porcine kidney DAAO (Sus scrofa (Pig), UniProt P00371); test: DAAO enzymatic assay; assay type: biochemical
Sequence of porcine kidney DAAO (P00371 whole entry): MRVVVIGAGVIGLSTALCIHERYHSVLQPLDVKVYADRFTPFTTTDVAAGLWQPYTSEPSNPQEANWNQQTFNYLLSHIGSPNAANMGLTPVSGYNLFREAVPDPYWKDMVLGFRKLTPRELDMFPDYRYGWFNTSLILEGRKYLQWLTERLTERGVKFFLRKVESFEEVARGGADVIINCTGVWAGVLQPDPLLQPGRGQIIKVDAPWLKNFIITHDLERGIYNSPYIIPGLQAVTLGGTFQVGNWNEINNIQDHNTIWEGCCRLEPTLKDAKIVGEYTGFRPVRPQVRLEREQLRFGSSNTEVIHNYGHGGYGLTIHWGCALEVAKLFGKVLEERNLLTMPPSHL
Experimental: The DAAO activity was measured by using substrate D-alanine reaction produced hydrogen peroxide (H2O2) to further react with 3-(4-hydroxyphenyl) propionic acid (HPPA). The HPPA were oxidized by H2O2 and peroxidase to become the fluorogenic dimer which was measured to represent the activity of DAAO. The substrate of DAAO was prepared in 50 mM D-alanine (dissolved in 0.2 M Tris-HCl buffer, pH 8.3). […] A 10 ul of D-alanine and drug mixture was incubated with 220 ul of Reaction Master Mix in black 96 well plate at 37° C. for 5 min. The Reaction Master Mix contained 110 ul of 5 U/mL porcine kidney DAAO (Sigma-Aldrich, USA) solution (dissolved with 0.2 M Tris-HCl buffer, pH 8.3), 1.1 mL of 15 U/mL peroxidase solution (dissolved with 0.2 M Tris-HCl buffer, pH 8.3), 1.1 mL of 20 mM HPPA solution (dissolved with 0.2 M Tris-HCl buffer, pH 8.3), and 2.2 ml of 2 M Tris-HCl buffer (pH 8.3) for 110 reaction assays.
The higher is the DAAO enzymatic activity, the higher is the fluorescence intensity. The fluorometric inhibition indicator (Fi) was obtained from the following equation: Fi=(Fs−FDrug)/(FDMSO). Where the fluorescent drug blank (FDrug) were measured in the drug mixture solution (using 0.2 M Tris HCl buffer, pH 8.3, without D-alanine). A DMSO blank (FDMSO) was measured under a 100% DMSO solution. Although, in the assay for D-amino acid oxidase, FAD was generally included in the reaction mixture because this co-factor is easily dissociated from the holoenzyme, the present method was performed without FAD. […] The IC50 value was calculated by GraphPad Prism, version 5 software (GraphPad Software, Inc., La Jolla, Calif.) (GraphPad Prism 5, GraphPad software Inc: California, USA) through nonlinear regression model.

WT mice [3] = test: Hot plate test in WT mouse model; assay type: in vivo; conditions: 55° C. hot plate, 40 mg/kg i.p., vs WT controls, listed as RS-D7
Description: as §1
For schizophrenia-like negative symptoms in mice, hot plate test was used to assess basic pain and nociception function in mice. […]

WT mice [4] = test: Prepulse inhibition (PPI) in WT mouse model; assay type: in vivo; conditions: 20 mg/kg i.p., 78 dB prepulse, vs saline controls, listed as RS-D7
Description: as §1
To assess schizophrenia-like cognitive function in mice, prepulse inhibition (PPI) was used to evaluate sensorimotor gating functions in mice after RS-D7 injection. […]

[5] = test system: C57/B16 mice with MK-801 injection; test: Hot plate test in MK-801 mouse model of schizophrenia; assay type: in vivo; conditions: mice given MK-801 0.2 mg/kg i.p.; listed as RS-D7
Description: as §1, §2

[6] = test system: C57/B16 mice with MK-801 injection; test: Sucrose preference test in MK-801 mouse model of schizophrenia; assay type: in vivo; conditions: mice given MK-801 0.2 mg/kg i.p., 20 mg/kg RS-D7
Description: as §1, §2

[7] = porcine kidney DAAO, D-alanine substrate, HPPA fluorescence, pH 8.3, 37° C.

Compound: CNCC[C@H](Oc1cccc2ccccc12)c1cccs1 [Duloxetine, reference compound]
IC50 (porcine kidney DAAO): 5.47 µM

Compound: COc1ccc2nc([S@@+]([O-])Cc3ncc(C)c(OC)c3C)[nH]c2c1 [Esomeprazole, reference compound]
IC50 (porcine kidney DAAO; [7]): 106 µM

Compound: COc1ccc(OC[C@@H]2CNCC[C@H]2c2ccc(F)cc2)cc1O [PM-BRL 36583A, (−)-trans 4-(4-Fluorophenyl)-3-(3-hydroxy-4-methoxyphenoxymethyl) piperidine]
IC50 (porcine kidney DAAO; [7]): 3.67 µM

Compound: COc1cc(OC[C@@H]2CNCC[C@H]2c2ccc(F)cc2)ccc1O [PM-BRL 36610A, (−)trans 4-(4-fluorophenyl)-3-(4-hydroxy-3-methoxyphenoxymethyl)piperidine-hydrochloride]
IC50 (porcine kidney DAAO; [7]): 3.45 µM

Compound: O=C([O-])c1ccccc1.[Na+] [sodium benzoate, reference compound]
IC50 (porcine kidney DAAO): ~71.7 µM

More lines, main results first:

IC50 (porcine kidney DAAO; [7]): 1.19 µM and 1 to 10 µM
Compound: COc1c(C)cnc(C[S+]([O-])c2nc3cc(O)ccc3[nH]2)c1C (stereo not shown) [5-O-Desmethyl-Omeprazole]
acoustic prepulse inhibition [1]: alleviates; also recorded: significantly alleviated MK-801 induced PPI deficit
prepulse inhibition (sensorimotor gating function) [2]: alleviates sensorimotor gating deficit; also recorded: induce a greater PPI
latency of mouse first reaction (jump) on hot plate (WT mice [3]): increases nociception function; also recorded: accelerated
numbers of jump on hot plate (WT mice [3]): increases nociception function; also recorded: increased
prepulse inhibition (sensorimotor gating function) (WT mice [4]): increases; also recorded: induced a greater PPI
latency in hot plate test [5]: alleviates; also recorded: alleviated the MK-801-induced alteration
reaction numbers in hot plate test [5]: alleviates; also recorded: alleviated the MK-801-induced alteration
sucrose uptake in sucrose preference test (anhedonia) [6]: alleviates; also recorded: rescued the MK-801 induced deficit

IC50 (porcine kidney DAAO; [7]): 97.6 µM
Compound: CCN(CC)Cc1cc(Nc2ccnc3cc(Cl)ccc23)ccc1O [Amodiaquin, reference compound]

IC50 (porcine kidney DAAO; [7]): 102 µM
Compound: Clc1ccc2c(c1)N=C(N1CCNCC1)c1ccccc1N2 [N-Desmethylclozapine]
